# Experimental data: patent publication US10697020B2, “MicroRNA-129 as a biomarker for colorectal cancer” (THE RESEARCH FOUNDATION FOR THE STATE UNIVERSITY OF NEW YORK, priority 2013, dated 2020)
# Experiments:
# [1] = tested on: SW480 cells; assay: Cell proliferation assay (WST-1), SW480; type: cell-based, human; conditions: day 5
# Experimental: (§1) HCT116, RKO and SW480 cells were plated in 6-well plates at 2×10^5, 1×10^5 and 1×10^5 per well, respectively. Twenty-four hours after plating, 100 nM of miR-129 precursor (Ambion, Carlsbad, Calif., USA) or siRNA against BCL2 (Dharmacon, Lafayette, Colo., USA) were transfected to the cells with oligofectamine (Invitrogen, Carlsbad, Calif., USA) in accordance with the manufacturer's protocol. Negative miRNA (Ambion) was also transfected as a negative control.
# Twenty-four hours after transfection, cells were seeded in 96-well plates at a density of 2000 cells per well. The cell proliferation assay was performed on days 1, 3 and 5 by incubating 10 μl WST-1 (Roche Applied Science, Mannheim, Germany) in the culture medium for 1 h and reading the absorbance at 450 and 630 nm. The cell proliferation rate was calculated by […]. Experiments for the cell proliferation assay were performed at least three times.
# [2] = tested on: E2F3; assay: Western immunoblot analysis of E2F3 protein in HCT116 cells; type: cell-based, human; conditions: HCT116 cells after miR-129 transfection
# Experimental: as §1
# Forty-eight hours after transfection, cells were lysed with RIPA buffer (Sigma-Aldrich), and Western immunoblotting was performed using standard procedures. The primary antibodies used for the analysis were mouse anti-human BCL2 antibody (1:200; Thermo Fisher Scientific, Fremont, Calif., USA), rabbit anti-human cleaved caspase-3 antibody (1:200; Cell Signaling Technology, Beverly, Mass., USA), rabbit anti-human cleaved caspase-9 antibody (1:200; Cell Signaling Technology), mouse anti-human E2F3 antibody (1:5000; Millipore, Billerica, Mass., USA), mouse anti-human TS antibody (1:400; Millipore), mouse anti-human GAPDH antibody (1:1000, Santa Cruz Biotechnology, Santa Cruz, Calif., USA) or mouse anti-human α-tubulin antibody (1:1000; Millipore). […] HRP activity was detected with SuperSignal West Pico Chemiluminescent Substrate (Thermo Fisher Scientific) and visualized in an UVP Bioimaging system.
# [3] = tested on: HCT116 cells; assay: Colorectal cancer xenografts (HCT116) in NOD/SCID mice, tumor volume; type: in vivo; conditions: day 24
# Experimental: When solid and palpable tumors with an average volume of 100-150 mm^3 were formed (at day 14), mice were randomly separated into four groups such that each group was treated either with negative control miRNA, miR-129 alone, 5-FU alone or miR-129 and 5-FU together. The miRNAs were complexed with siPORTamine and injected intratumorally while 5-FU (50 μg g^−1) was injected systemically via the tail vein. All injections were provided in 3-day intervals for a total of three times before the tumors were collected at day 24. […] Importantly, despite the overexpression, the expression levels of miR-129 copy number remained within the physiological range (less than 20 copies/cell based on cycle threshold value at 30, which is equal to the expression of miR-129 in normal colon mucosa). Moreover, the control tumor xenografts had no miR-129 expression (cycle threshold value at 35).
# Ten-twelve week old NOD/SCID mice (Jackson Laboratories, Bar Harbor, […]., USA) were used for tumor implantation. All animal procedures were approved by the Stony Brook University Institutional Animal Care and Use Committee (IACUC). The tumor implantation and miRNA injection protocol was modified from Trang et al. (see Trang P., et al., Oncogene. (2010) 29(11):1580-7). The mice were anesthetized by isoflurane inhalation. HCT116 cells were subcutaneously injected into the lower back areas of the mice using 2.5×10^6 cells in 100 μl McCoy's 5A with 50% matrigel (BD Biosciences). The tumor size was measured using a caliper and tumor volume was calculated using the formula V=length×width^2/2. When tumor volumes reach 100-150 mm^3 at day 14 post-injection, the mice were randomly assigned into four groups. For the first two groups, 10 μM negative miRNA or miR-129 precursor (Ambion) complexed with 1.6 μl siPORTAmine (Ambion) in 50 μl McCoy's 5A was injected into the tumors every three days. For the third group, 5-FU (Sigma-Aldrich) was injected at 50 μg/g via the tail vein every three days. Finally, for the last group, both miR-129 precursor and 5-FU were injected as described above. The mice were euthanized on day 24 post-injection by CO2 inhalation, and tumors were dissected out for RNA isolation.
substance,measurement,setting,value
miR-129: nucleic acid having a sequence of CUUUUUGCGGUCUGGGCUUGC (SEQ ID NO. 1); miR-129 precursor from Ambion used (chemistry not given here; listed as Homo sapiens),cell proliferation reduced compared to negative controls,[1],44.7%
same,E2F3 protein levels,[2],reduce E2F3 protein levels
same,inhibition of tumor growth (in words),"[3]; HCT116 xenograft, compared with negative miRNA or single agents",sufficiently reduced tumor size
same,"average tumor volume, % of the control group","[3]; treated days 14, 17, 20, miRNA intratumoral with siPORTamine, 5-FU 50 μg/g tail vein, control negative miRNA",~84.4%
